Where two headings read alike, the source gives them in different places.
Tests used:
Type in all cases: cell-based
GluN1a/2A = target: T1, GluN1a/2A (Homo sapiens, UniProt Q05586+Q12879); test: Selectivity: whole-cell normalized peak current of NMDA receptor GluN1a/2A; settings: 16 µM compound, HEK293t, −60 mV
T1 construct: expressed in transfected cells; host or cells: HEK293t cells
Protocol: (§1) To evaluate the selectivity of CIC-1 and CIC-2 derivatives, their effects on GluN1a/2A and GluN1a/2B of the NMDA receptors were tested. The normalized peak current responses of the subunits alone and with CIC-1 and CIC-2 were determined (Figure 4).
(§2) Figure 4 The inhibitory actions of Isoxazole-4-carboxamide derivatives on the whole-cell currents mediated by GluA2, GluA2/3 AMPA receptor subtypes and GluN1a/2A, […] receptor subtypes. (a) represents data for CIC-1 and CIC-2 compounds. AMPA- and NMDA-induced currents (black bars) are then compared to currents recorded in the presence of 16 µM CIC compounds (white bars). Panels (b–e) show representative traces of whole-cell current responses to a 1 ms administration of 10 mM glutamate for the subunits. The traces show normalized responses for glutamate alone (black) and glutamate in combination with CIC compounds (color-coded). The recording was performed in HEK293t cells at −60 mV, pH 7.4, and 22 °C. Data present mean ± SD from 3–4 different experiments. *** p < 0.001; and “ns” indicates not significant.

GluA2/3 = target: T2, GluA2/3 (UniProt P19491+P42263); test: Whole-cell patch clamp recordings of heteromeric GluA2/3 AMPA receptor currents and kinetics in transfected HEK293t cells; settings: for Amplitude (peak whole-cell current in presence of compound): 16 µM compound co-applied with agonist, HEK293t, −60 mV, pH 7.4, 22 °C; for Amplitude (peak whole-cell current in presence of compound) / A/AI (amplitude ratio, glutamate alone / with compound) / t deact (weighted deactivation time constant) / t des (weighted desensitization time constant) / Amplitude, applying glutamate alone after compound: mean ± SD; for Amplitude (peak whole-cell current in presence of compound) / A/AI (amplitude ratio, glutamate alone / with compound) / Amplitude, applying glutamate alone after compound: n = 10; for A/AI (amplitude ratio, glutamate alone / with compound): 16 µM compound; for t deact (weighted deactivation time constant): 10 mM glutamate for 1 ms; for t deact (weighted deactivation time constant) / t des (weighted desensitization time constant): with compound; for t des (weighted desensitization time constant): 10 mM glutamate for 500 ms; for Amplitude, applying glutamate alone after compound: glutamate alone after the compound; for Increase of deactivation time constant (τdeac): versus control
T2 construct: expressed in transfected cells; host or cells: HEK293T (HEK293) cells, transient co-transfection
Text: (§3) The AMPA receptor subunits utilized in this study were of the flip isoform. The flip variant of the GluA2 subunit was originally provided by S. F. Heinemann (Salk Institute, La Jolla, CA, USA) in a pBlueScript plasmid. This plasmid was subsequently sub-cloned into a pRK vector to enable expression in HEK293 cells, which were sourced from Sigma, Germany. Additionally, the unedited version of GluA2 (R607Qjj, flip isoform) and enhanced green fluorescent protein (EGFP), both contained in pRK5 vectors, were generously supplied by P. H. Seeburg (Max Planck Institute for Medical Research, Heidelberg, Germany). Chemical-mediated ways induced transfection. GluA2 homomers were expressed into HEK293 cells by the co-transfection of 1 μg GluA2 plasmid with an equal amount of GFP expression vectors (1:1 ratio) into the cells. In addition, co-transfection was conducted for heteromeric GluA2/3 subunits at a ratio of 1:1.2 for optimum expression. For post-transfection experiments, cells were plated in 10% fetal calf serum and antibiotics in DMEM in Petri plates. These cultures were maintained under carefully controlled conditions—37 °C and 5% CO2 within a humidified incubator. The selection of cells for recordings was based on fluorescence intensity. Highly GFP-positive cells were identified and isolated for further analysis, ensuring precise targeting of transfected populations.
(§4) Whole-cell patch clamp recordings were performed on HEK293t cells 36–48 h after transfection. Experiments were conducted at 22 °C, maintaining a holding potential of −60 mV, using an Integrated Patch Amplifier (IPA) from Sutter Instruments (Novato, CA, USA). Data acquisition was managed with SutterPatch Software v. 1.1.1 (Sutter Instruments), employing a sampling rate of 10 kHz and setting the low-pass filter at 2 kHz. […] The external solution contained 150 mM NaCl, 2.8 mM KCl, 0.5 mM MgCl2, 2 mM CaCl2, and 10 mM HEPES, adjusted to a pH of 7.4 using NaOH. The internal pipette solution was composed of 110 mM CsF, 30 mM CsCl, 4 mM NaCl, 0.5 mM CaCl2, 10 mM trypsin-EDTA solution B (0.25%), 0.05% EDTA, and 10 mM HEPES, with the pH adjusted to 7.2 using CsOH.
(§5) A dual-barrel glass pipette (theta tube) was employed for the rapid delivery of glutamate and other solutions. The theta tube was attached to a high-speed piezoelectric solution exchange system (Automate Scientific, Berkeley, CA, USA). To assess the efficiency of solution exchange, open-tip potentials were measured by applying solutions with different ionic compositions after the patch was expelled from the pipette. The time required for a 10–90% change in the solution was generally less than […].
(§6) Data analysis was performed with Igor Pro8.04 software (Wave Metrics, Inc., Portland, OR, USA). AMPA receptor deactivation and desensitization kinetics were measured by applying 10 mM glutamate for 1 ms and 500 ms, respectively. The currents from the AMPA receptor were fitted to a double-exponential model to quantify deactivation and desensitization time constants measured from the double-exponential fits. The weighted tau (τw) is calculated as: τw = (τf × af) + (τs × as), where τf and τs are the time constants of fast and slow exponential components and af and as represent their relative amplitudes.
(§7) Data are presented as the mean ± standard deviation (SD). The total number of HEK293 cells engaged was n = 10. The experimental groups were compared to the wild type using a one-way analysis of variance (ANOVA). Statistical significance was assessed using p values: p < 0.05 (*) indicated significance, p < 0.01 (**) indicated high significance, and p < 0.001 (***) indicated very high significance. The value “ns” indicates non-significance. Concentration–response relationships were modeled using the Hill equation with the resulting combined plots via GraphPad Prism software (version 6.01, GraphPad Software). The data presented are the means from 3–4 experimental replicates. […]

GluN1a/2B = target: T3, GluN1a/2B (Homo sapiens, UniProt Q05586+Q13224); test: Selectivity: whole-cell normalized peak current of NMDA receptor GluN1a/2B; settings: 16 µM compound, HEK293t, −60 mV
T3 construct: expressed in transfected cells; host or cells: HEK293t cells
Protocol: as §1, §2

GluA2 = target: T4, GluA2 (Rattus norvegicus, UniProt P19491); test: Whole-cell patch clamp recordings of homomeric GluA2 AMPA receptor currents and kinetics in transfected HEK293t cells; settings: for Amplitude (peak whole-cell current in presence of compound): 16 µM compound co-applied with agonist, HEK293t, −60 mV, pH 7.4, 22 °C; for Amplitude (peak whole-cell current in presence of compound) / A/AI (amplitude ratio, glutamate alone / with compound) / t deact (weighted deactivation time constant) / t des (weighted desensitization time constant) / Amplitude, applying glutamate alone after compound: mean ± SD; for Amplitude (peak whole-cell current in presence of compound) / A/AI (amplitude ratio, glutamate alone / with compound) / Amplitude, applying glutamate alone after compound: n = 10; for A/AI (amplitude ratio, glutamate alone / with compound): 16 µM compound; for t deact (weighted deactivation time constant): 10 mM glutamate for 1 ms; for t deact (weighted deactivation time constant) / t des (weighted desensitization time constant): with compound; for t des (weighted desensitization time constant): 10 mM glutamate for 500 ms; for Amplitude, applying glutamate alone after compound: glutamate alone after the compound; for Increase of deactivation time constant (τdeac): versus control
T4 construct: expressed in transfected cells; host or cells: HEK293T (HEK293) cells, transient co-transfection with a separate EGFP vector
Text: as §3, §4, §5, §6, §7

[1] = concentration–response fit, read-out: Log IC50 (converted)
[2] = inhibition of whole-cell peak current, concentration–response, Hill fit, read-out: IC50
[3] = versus glutamate alone, one-way ANOVA

T2 sequence (P19491 22-883 isoform P19491-2 limits assumed): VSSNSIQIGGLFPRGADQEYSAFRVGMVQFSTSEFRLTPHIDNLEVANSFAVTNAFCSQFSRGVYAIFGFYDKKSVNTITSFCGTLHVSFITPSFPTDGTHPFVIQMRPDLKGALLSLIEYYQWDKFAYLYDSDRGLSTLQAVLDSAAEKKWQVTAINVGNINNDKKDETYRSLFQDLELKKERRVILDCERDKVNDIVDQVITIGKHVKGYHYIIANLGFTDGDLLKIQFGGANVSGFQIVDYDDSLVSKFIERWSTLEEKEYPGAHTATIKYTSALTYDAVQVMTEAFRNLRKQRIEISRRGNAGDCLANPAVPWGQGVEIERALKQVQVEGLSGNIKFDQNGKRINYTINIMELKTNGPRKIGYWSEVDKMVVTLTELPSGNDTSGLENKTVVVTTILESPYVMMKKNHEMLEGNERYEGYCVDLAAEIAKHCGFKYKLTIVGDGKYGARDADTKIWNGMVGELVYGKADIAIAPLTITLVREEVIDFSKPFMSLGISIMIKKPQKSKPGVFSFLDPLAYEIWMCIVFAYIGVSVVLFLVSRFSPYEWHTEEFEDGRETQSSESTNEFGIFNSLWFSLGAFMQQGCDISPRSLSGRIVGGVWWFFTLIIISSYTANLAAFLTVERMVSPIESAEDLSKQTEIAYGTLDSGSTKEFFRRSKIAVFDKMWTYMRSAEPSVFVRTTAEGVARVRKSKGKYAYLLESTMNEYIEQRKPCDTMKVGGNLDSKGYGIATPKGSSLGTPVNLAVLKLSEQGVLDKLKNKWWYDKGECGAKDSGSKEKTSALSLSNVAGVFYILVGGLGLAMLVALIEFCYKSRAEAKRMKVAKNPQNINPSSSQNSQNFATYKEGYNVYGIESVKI
T2 sequence (P42263 29-894 isoform P42263-2 limits assumed): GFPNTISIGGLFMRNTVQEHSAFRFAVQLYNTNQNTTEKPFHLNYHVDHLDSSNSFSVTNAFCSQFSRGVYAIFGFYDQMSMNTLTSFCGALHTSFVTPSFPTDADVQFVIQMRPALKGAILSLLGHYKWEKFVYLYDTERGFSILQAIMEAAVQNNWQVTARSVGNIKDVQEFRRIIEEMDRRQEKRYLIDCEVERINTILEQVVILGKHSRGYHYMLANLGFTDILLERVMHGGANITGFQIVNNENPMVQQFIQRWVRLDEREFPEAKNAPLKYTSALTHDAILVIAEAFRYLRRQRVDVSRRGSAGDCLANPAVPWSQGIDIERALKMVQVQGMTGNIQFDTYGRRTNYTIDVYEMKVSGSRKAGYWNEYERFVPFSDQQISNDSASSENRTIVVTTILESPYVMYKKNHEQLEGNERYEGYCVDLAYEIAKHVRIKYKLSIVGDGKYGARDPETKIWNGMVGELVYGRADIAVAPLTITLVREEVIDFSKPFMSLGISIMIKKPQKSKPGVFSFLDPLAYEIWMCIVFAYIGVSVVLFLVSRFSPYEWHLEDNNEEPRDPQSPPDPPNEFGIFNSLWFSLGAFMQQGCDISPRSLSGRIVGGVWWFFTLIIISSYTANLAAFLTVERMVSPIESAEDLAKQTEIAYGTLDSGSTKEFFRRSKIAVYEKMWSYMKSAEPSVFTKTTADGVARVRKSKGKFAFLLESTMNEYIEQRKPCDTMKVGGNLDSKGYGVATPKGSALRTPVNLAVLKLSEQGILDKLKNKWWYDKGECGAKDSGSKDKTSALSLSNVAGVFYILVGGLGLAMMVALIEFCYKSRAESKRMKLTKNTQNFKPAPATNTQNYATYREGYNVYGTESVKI
T4 sequence (P19491 22-883 isoform P19491-2 limits assumed): as the sequence (P19491 22-883 isoform P19491-2 limits assumed) above
T1 sequence (Q12879 23-1464, other chains not shown): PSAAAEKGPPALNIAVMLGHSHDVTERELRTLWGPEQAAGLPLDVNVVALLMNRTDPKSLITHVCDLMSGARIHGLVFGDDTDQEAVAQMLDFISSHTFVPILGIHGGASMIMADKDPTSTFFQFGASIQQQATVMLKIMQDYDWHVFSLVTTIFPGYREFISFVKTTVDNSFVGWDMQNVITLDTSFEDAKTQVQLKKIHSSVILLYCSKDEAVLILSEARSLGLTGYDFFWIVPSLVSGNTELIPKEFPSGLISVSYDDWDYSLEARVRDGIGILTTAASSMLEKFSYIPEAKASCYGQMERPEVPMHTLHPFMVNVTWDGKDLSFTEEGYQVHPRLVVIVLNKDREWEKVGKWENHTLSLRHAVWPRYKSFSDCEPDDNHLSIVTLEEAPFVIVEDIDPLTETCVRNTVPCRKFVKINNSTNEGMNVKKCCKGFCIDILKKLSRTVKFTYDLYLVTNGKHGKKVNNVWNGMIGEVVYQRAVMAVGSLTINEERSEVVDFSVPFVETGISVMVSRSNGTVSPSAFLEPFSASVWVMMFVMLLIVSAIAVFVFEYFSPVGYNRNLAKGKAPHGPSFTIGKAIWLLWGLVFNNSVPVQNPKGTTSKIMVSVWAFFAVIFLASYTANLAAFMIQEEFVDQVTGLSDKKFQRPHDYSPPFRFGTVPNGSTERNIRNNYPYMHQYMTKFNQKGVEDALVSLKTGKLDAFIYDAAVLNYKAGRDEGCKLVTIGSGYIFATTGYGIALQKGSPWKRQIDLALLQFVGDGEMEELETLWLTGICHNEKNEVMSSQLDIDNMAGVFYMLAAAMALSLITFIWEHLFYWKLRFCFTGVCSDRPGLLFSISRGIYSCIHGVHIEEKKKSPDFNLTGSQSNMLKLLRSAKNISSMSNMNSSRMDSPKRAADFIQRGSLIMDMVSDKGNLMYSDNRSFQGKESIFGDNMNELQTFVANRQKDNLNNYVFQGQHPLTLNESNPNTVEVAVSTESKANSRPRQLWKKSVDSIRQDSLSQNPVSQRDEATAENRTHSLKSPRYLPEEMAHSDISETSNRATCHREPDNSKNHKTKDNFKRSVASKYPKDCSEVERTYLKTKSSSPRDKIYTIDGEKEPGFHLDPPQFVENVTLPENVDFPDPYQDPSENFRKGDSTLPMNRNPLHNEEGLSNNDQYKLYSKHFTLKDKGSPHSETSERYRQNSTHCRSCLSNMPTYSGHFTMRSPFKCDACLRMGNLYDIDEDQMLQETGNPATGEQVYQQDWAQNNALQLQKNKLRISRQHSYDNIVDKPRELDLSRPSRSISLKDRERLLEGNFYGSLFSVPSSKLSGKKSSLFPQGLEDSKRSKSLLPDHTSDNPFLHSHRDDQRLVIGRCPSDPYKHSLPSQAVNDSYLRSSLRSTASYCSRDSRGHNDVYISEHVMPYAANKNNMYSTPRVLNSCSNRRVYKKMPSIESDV
T3 sequence (Q13224 27-1484, other chains not shown): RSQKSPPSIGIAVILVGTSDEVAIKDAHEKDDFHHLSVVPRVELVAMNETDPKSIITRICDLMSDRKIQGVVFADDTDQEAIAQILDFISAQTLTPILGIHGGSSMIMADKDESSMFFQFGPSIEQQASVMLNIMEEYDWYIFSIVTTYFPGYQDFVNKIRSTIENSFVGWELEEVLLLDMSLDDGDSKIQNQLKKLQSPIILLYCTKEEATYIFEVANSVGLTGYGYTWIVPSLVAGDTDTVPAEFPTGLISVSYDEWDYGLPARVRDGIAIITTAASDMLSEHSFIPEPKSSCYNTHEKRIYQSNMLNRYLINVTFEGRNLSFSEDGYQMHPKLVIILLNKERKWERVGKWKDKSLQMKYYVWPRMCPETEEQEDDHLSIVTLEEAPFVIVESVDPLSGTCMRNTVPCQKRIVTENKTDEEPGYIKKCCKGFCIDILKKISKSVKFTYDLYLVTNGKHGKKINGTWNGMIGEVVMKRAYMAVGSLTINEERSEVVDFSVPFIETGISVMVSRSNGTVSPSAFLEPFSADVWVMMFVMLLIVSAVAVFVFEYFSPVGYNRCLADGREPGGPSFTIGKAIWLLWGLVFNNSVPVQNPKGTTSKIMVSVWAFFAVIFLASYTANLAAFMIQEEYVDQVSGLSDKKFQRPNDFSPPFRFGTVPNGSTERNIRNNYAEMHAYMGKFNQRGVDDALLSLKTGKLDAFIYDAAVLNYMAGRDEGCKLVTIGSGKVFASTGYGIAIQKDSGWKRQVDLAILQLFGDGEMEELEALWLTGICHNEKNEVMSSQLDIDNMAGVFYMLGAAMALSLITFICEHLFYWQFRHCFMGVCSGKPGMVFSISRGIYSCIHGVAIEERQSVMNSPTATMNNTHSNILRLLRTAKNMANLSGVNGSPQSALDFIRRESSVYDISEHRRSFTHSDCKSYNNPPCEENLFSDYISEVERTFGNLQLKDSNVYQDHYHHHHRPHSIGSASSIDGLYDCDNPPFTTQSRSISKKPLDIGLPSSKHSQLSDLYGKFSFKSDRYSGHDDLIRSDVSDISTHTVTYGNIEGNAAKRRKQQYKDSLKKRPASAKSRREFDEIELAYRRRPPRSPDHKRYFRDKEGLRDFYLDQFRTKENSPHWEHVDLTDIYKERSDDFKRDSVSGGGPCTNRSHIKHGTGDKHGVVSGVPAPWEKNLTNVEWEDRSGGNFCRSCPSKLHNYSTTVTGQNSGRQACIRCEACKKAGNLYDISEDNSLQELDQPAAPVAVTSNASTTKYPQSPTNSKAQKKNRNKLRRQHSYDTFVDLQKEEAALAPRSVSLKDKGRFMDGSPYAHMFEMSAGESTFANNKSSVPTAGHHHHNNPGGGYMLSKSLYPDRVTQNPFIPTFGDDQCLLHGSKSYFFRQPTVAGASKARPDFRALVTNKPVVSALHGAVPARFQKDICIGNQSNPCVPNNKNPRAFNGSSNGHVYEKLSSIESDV

Row | SMILES | Effect on normalized peak current (GluN1a/2A) | Amplitude (peak whole-cell current in presence of compound) (GluA2/3) [pA] | A/AI (amplitude ratio, glutamate alone / with compound) (GluA2/3) | t deact (weighted deactivation time constant) (GluA2/3) [ms] | t des (weighted desensitization time constant) (GluA2/3) [ms] | IC50 (GluA2/3; [1]) [µM] | Amplitude, applying glutamate alone after compound (GluA2/3) [pA] | Increase of deactivation time constant (τdeac) (GluA2/3) | Effect on normalized peak current (GluN1a/2B) | Amplitude (peak whole-cell current in presence of compound) (GluA2) [pA] | A/AI (amplitude ratio, glutamate alone / with compound) (GluA2) | t deact (weighted deactivation time constant) (GluA2) [ms] | t des (weighted desensitization time constant) (GluA2) [ms] | IC50 (GluA2; [1]) [µM] | Amplitude, applying glutamate alone after compound (GluA2) [pA] | IC50 (GluA2; [2]) [µM] | Increase of deactivation time constant (τdeac) (GluA2) | IC50 (GluA2/3; [2]) [µM] | Effect on desensitization kinetics (τdes), in words (GluA2/3; [3]) | Effect on desensitization kinetics (τdes), in words (GluA2; [3])
1 | CSc1ccc(NC(=O)c2c(-c3c(Cl)cccc3Cl)noc2C)cc1 [CIC-1, 3-(2,6-dichlorophenyl)-5-methyl-N-(4-(methylthio)phenyl)isoxazole-4-carboxamide] | statistically not significant | 73 ± 5 | 8.02±0.49 | 8.1 ± 0.4 | 0.7 ± 0.2 | 3.09 | 562±28 | approximately 4 fold | statistically not significant | 156 ± 7 | 8.11±0.41 | 8.3 ± 0.3 | 0.6 ± 0.1 | 3.02 | 1231±85 | 3.03 | approximately 4 fold | – | – | –
2 | COc1cc(NC(=O)c2c(-c3c(Cl)cccc3Cl)noc2C)c(OC)cc1Cl [CIC-2, N-(4-chloro-2,5-dimethoxyphenyl)-3-(2,6-dichlorophenyl)-5-methylisoxazole-4-carboxamide] | statistically not significant | 75 ± 6 | 7.65±0.45 | 7.8 ± 0.4 | 0.8 ± 0.1 | 3.31 | 552±44 | approximately 4 fold | statistically not significant | 160 ± 12 | 7.79±0.42 | 7.9 ± 0.3 | 0.7 ± 0.1 | 3.16 | 1213±94 | 3.18 | approximately 4 fold | 3.32 | accelerating desensitization | accelerating desensitization

Reference: publication PMC11932207, “Regulating AMPA Receptors with Isoxazole-4-Carboxamide Derivatives: An Electrophysiological Study” (Journal of Xenobiotics, 2025)
